pIC50: −log10 of the molar value.
Experiments:
DPPIV [1] = target: T1, DPPIV (Homo sapiens, UniProt P27487); assay: Stability of the inhibitor-DPPIV adduct; type: biochemical; settings: DPPIV incubated with 0.5 mM inhibitor 1 hour, excess removed by gel filtration
T1 construct: from tissue; host or cells: prostasomes from human seminal plasma, purified on immobilized adenosine deaminase
Method: The phosphorylated enzyme is expected to hydrolyze slowly by action of solvent or nucleophilic groups on the enzyme.
The stability of the adduct was determined as follows. […] Excess inhibitor was removed by gel filtration on a PD 10 column (Pharmacia Biotech, Uppsala, Sweden) previously equilibrated with 50 mM Tris.HCl buffer, pH 8.3.

DPPIV [2] = target: T1, DPPIV; assay: biochemical; type: biochemical; settings: 1 hour preincubation at room temperature; substrate Gly-Pro-4-Me-2-naphtylamine.HCl; Tris.HCl pH 8.3, 37° C.; inhibitory diastereoisomer unless marked *; read-out: IC50
Method: (§1) All enzymatic reactions were carried out in 50 mM Tris.HCl buffer pH 8.3 at 37° C. with Gly-Pro-4-Me-2-naphtylamine.HCl as substrate. One activity unit is defined as the amount of enzyme which catalyzes the conversion of 1 micromole of substrate per minute at 37° C. All experiments were carried out with the same stock solution of DPPIV containing 1.8 units/ml. The enzyme was diluted (usually 1/200 or 1/500) in reaction buffer immediately before the experiment to a suitable concentration so as not to consume more that 10% of the substrate during the incubation period.
The remaining activity was determined by adding 5 microliter of a 1 mM solution of Gly-Pro-4-Me-2-naphtylamine.HCl. The reaction mixture containing enzyme, substrate and inhibitor was incubated for 20 min at 37° C. The reaction was stopped by addition of 0.5 ml 100 mM citrate pH 4.0. The fluorescence of the sample was measured within 2 h after quenching. The measurements were done in duplicate and corrected for background fluorescence using a blanc with exactly the same composition except that the citrate solution was added before the substrate.

DPPIV [3] = target: T1, DPPIV; type: biochemical; settings: inhibitor 0.1 or 0.5 mM, 37° C.; k+ = kobs/[I]o
Method: as §1
The kinetics of inactivation were measured by adding an appropriate concentration of inhibitor (0.1 or 0.5 mM) to 0.5 ml of enzyme in reaction buffer at 37° C. and determining the activity at various time points after mixing. To achieve this, 25 microliter samples were withdrawn and diluted […] in 2 mM Gly-Pro-4-Me-2-naphthylamine.HCl. The reaction was quenched with citrate after 10 to 15 min and the fluorescence was determined. The dilution in an excess of substrate reduced the velocity of inhibitor binding by a factor of 20. The decrease in fluorescence with time was fitted with the equation of a monoexponential decay yielding the pseudo-first order rate constant for binding (kobs) in the exponent. The second order rate constant (k+) was calculated as follows: k+ =kobs /[I]o where [I]o is the concentration of inhibitor in the incubation mixture.

[4] = Functional stability of DPPIV inhibitors in the reaction medium (buffer); type: physicochemical; settings: 50 mM TRIS buffer pH 8.3, 37° C.
Method: (§2) To determine the functional stability of the inhibitors in the reaction medium, a 10 mM stock solution in DMSO was diluted 50-fold in 50 mM TRIS buffer pH 8.3 and incubated at 37° C. To determine the functional stability in plasma, a 50 mM stock solution in DMSO was diluted 50-fold in fresh or freshly frozen citrated plasma from a healthy donor and incubated at 37° C. At specific time intervals an aliquot was withdrawn, added to an equal volume of DPPIV diluted in buffer or to an equal volume of plasma and the kinetics of inactivation were determined as described under b). The reduction in observed pseudo-first order rate constant is a measure for the amount of functional inhibitor lost during the incubation and allowed to estimate the half-life of the inhibitors in buffer and plasma. The following table lists the results.

[5] = Functional stability of DPPIV inhibitors in human citrated plasma; type: in vitro ADME; settings: 37° C.
Method: as §2

[6] = In vivo testing in rabbits, single intravenous injection
Method: In order to test the effect of the inhibitors in vivo rabbits were injected with the inhibitor and their DPPIV activity was tested using Gly-Pro-4-Methoxy-2-naphthylamide as the substrate.
4 Rabbits received a single 5 ml intravenous-(ear vein) injection of physiological saline cobtaining 0 (control), 1 mg, 5 mg and 10 mg AB 3, respectively. Blood samples were taken from the central ear artery 5 min before injection and at different points of time, directly after the injection, after 4 hrs and after 1, 2, 3, 6 and 13 days.
Counts of white and red blood cells and platelets, serum DPPIV activity and serum bilirubin, GOT, GPT, GT, LDH, creatinine, Na, K, CK and urea were evaluated.

T1 sequence (P27487 whole entry): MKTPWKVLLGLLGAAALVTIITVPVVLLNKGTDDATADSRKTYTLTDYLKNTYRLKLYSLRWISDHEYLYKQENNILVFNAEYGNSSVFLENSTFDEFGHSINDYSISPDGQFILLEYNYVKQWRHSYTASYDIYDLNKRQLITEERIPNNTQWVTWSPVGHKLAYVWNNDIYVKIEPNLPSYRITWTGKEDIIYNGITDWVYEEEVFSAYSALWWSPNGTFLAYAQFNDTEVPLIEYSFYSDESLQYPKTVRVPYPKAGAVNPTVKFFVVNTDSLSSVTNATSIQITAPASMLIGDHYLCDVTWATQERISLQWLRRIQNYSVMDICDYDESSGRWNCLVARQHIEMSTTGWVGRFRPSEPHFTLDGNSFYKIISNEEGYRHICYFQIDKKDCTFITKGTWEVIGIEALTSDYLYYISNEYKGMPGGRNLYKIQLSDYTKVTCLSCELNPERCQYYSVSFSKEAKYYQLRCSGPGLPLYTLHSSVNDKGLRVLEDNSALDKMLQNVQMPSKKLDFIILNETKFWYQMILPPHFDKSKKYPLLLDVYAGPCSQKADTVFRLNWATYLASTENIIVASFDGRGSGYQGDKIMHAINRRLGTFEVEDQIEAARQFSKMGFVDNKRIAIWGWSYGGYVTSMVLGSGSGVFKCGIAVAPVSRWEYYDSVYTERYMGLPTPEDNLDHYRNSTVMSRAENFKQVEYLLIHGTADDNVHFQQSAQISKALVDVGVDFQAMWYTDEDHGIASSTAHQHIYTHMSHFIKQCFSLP

SMILES | stability of the adduct at room temperature (DPPIV [1]) | pIC50 (DPPIV [2]) | K+ (second order rate constant) (DPPIV [3]) | t1/2 in buffer [4] | t1/2 in plasma [5] | death of the animal ([6]; rabbit receiving 10 mg i.v.) | biochemical and hematological parameters ([6]; rabbit receiving 10 mg i.v., at day 6) | cell counts (white and red blood cells, platelets) and serum biochemical parameters ([6]; rabbits, single i.v. injection of 1 mg, 5 mg or 10 mg, up to 13 days, DPPIV enzyme activity excepted)
C[C@H](N)C(=O)N1CCCC1P(=O)(Oc1ccccc1)Oc1ccccc1.Cl (stereo partly drawn) [Ala-Pro-(OPh)2, Diphenyl (S,R)-1-[(S)-alanyl]pyrrolidine-2-phosphonate hydrochloride] | > 4 weeks | 2.70 | 0.7 M⁻¹ s⁻¹ |  |  |  |  | 
CC[C@H](C)[C@H](N)C(=O)N1CCCC1P(=O)(Oc1ccccc1)Oc1ccccc1.Cl (stereo partly drawn) [Ile-Pro-^P -(OPh)2, Diphenyl (S,R)-1-[(S)-isoleucinyl]pyrrolidine-2-phosphonate hydochloride] | > 3 weeks | 3.46 | 2.3 M⁻¹ s⁻¹ |  |  |  |  | 
CC(C)(C)Oc1ccc(C[C@H](N)C(=O)N2CCCC2P(=O)(Oc2ccccc2)Oc2ccccc2)cc1 (stereo partly shown) [O-tbutyl-Tyr-Pro^P -(OPh)2] |  | 3.00 | 0.5 M⁻¹ s⁻¹ |  |  |  |  | 
Cl.O=C([C@@H]1CCCN1)N1CCCC1P(=O)(Oc1ccccc1)Oc1ccccc1 (stereo partly drawn) [Pro-Pro^P -(OPh)2, Diphenyl (S,R)-1-[(S)-prolyl]pyrrolidine-2-phophonate hydrochloride] |  |  |  | 3.5 ± 0.1 h | 4.1 ± 0.3 h | died after 11 days | normal | No differences

Reference: patent US6090786A, “Serine proteases, their activity and their synthetic inhibitors” (priority 1994, dated 2000)
